Laboratory results as given in US20240208912A1 (Mirati Therapeutics, Inc., priority 2021, published 2024).

Each compound was assayed against T1, PRMT5/MEP50 complex (Homo sapiens, UniProt O14744) (assay: PRMT5:MEP50 HotSpot Assay (full-length histone H2A substrate, plus and minus MTA)). Conditions: IC50 + 2 μM MTA, in the presence of 2 μM MTA.
T1 construct: purchased Reaction Biology Corporation
Format: biochemical
Description: The PRMT5 inhibitory activity of compounds of the present invention was determined using either a PRMT5:MEP50 FlashPlate Assay (Reaction Biology Corporation) or a PRMT5:MEP50 HotSpot Assay (Reaction Biology Corporation).
The assay uses recombinant full-length hi stone H2A as the PRMT5 substrate. […] The reaction was stopped and transferred to filter paper for detection. The amount of tritiated H2A in each sample was determined using a scintillation counter.

T1 sequence (O14744 2-637 limits assumed): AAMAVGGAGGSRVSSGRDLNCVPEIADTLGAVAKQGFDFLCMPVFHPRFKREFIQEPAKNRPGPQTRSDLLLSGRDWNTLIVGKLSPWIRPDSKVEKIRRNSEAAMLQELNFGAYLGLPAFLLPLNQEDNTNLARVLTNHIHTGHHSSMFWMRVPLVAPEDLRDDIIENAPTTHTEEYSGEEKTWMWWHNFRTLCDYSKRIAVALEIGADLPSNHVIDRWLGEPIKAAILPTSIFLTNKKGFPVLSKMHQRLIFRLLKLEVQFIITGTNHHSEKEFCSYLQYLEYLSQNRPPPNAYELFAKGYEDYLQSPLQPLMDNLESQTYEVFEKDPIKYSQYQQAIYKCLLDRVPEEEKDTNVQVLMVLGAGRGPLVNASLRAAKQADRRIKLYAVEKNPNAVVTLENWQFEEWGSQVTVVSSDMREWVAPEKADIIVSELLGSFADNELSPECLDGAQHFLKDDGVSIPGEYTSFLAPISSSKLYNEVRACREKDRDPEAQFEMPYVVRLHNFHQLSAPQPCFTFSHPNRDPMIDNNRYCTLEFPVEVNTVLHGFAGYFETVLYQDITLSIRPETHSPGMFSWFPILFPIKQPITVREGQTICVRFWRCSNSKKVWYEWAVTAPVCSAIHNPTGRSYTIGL
T1 sequence (Q9BQA1 2-342 partner limits assumed): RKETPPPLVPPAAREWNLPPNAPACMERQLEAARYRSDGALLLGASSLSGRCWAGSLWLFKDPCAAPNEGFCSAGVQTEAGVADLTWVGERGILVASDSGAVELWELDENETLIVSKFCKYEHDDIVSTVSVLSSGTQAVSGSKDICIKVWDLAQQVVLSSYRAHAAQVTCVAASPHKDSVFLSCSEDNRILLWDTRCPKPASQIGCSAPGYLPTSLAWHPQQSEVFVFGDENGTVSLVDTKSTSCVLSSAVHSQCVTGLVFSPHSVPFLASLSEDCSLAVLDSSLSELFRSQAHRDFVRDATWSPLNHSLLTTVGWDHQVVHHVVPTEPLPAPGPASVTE

Structure (SMILES)	IC50 [nM]
Cn1ncc(-c2ccc3c(=O)[nH]nc(CN)c3c2)c1-c1c(C#N)cc2[nH]cnc2c1Cl (atropisomer, axis not shown; (M)) [Example 16-115, (M)-5-(4-(4-(aminomethyl)-1-oxo-1,2-dihydrophthalazin-6-yl)-1-methyl-1H-pyrazol-5-yl)-4-chloro-1H-benzo[d]imidazole-6-carbonitrile]	8720
Cn1ncc(-c2ccc3c(=O)[nH]nc(CN)c3c2)c1-c1c(Cl)ccc(OC2CC2)c1C#N (atropisomer, axis not shown; (M)) [Example 16-132, (M)-2-(4-(4-(aminomethyl)-1-oxo-1,2-dihydrophthalazin-6-yl)-1-methyl-1H-pyrazol-5-yl)-3-chloro-6-cyclopropoxybenzonitrile]	251
Cn1ncc(-c2ccc3c(=O)[nH]nc(CN)c3c2)c1-c1c(F)cc(S(F)(F)(F)(F)F)cc1C#N (atropisomer, axis not shown; (M)) [Example 16-134, (M)-2-(4-(4-(aminomethyl)-1-oxo-1,2-dihydrophthalazin-6-yl)-1-methyl-1H-pyrazol-5-yl)-3-fluoro-5-(pentafluoro-16-sulfanyl)benzonitrile]	955
Cn1ncc(-c2ccc3c(=O)[nH]nc(CN)c3c2)c1-c1c(F)cnc(OC2CC2)c1C#N (atropisomer, axis not shown; (M)) [Example 16-136, (M)-4-(4-(4-(aminomethyl)-1-oxo-1,2-dihydrophthalazin-6-yl)-1-methyl-1H-pyrazol-5-yl)-2-cyclopropoxy-5-fluoronicotinonitrile]	393
Cc1cnc2cc(F)c(-c3c(-c4ccc5c(=O)[nH]nc(CN)c5c4)cnn3C)c(C#N)c2c1 (atropisomer, axis not shown; (P)) [Example 16-36, (P)-6-[4-[4-(aminomethyl)-1-oxo-2H-phthalazin-6-yl]-2-methyl-pyrazol-3-yl]-7-fluoro-3-methyl-quinoline-5-carbonitrile]	543
Cn1ncc(-c2ccc3c(=O)[nH]nc(CN)c3c2)c1-c1c(C#N)cc2[nH]cnc2c1Cl (atropisomer, axis not shown; (P)) [Example 16-116, (P)-5-(4-(4-(aminomethyl)-1-oxo-1,2-dihydrophthalazin-6-yl)-1-methyl-1H-pyrazol-5-yl)-4-chloro-1H-benzo[d]imidazole-6-carbonitrile]	477
Cn1ncc(-c2ccc3c(=O)[nH]nc(CN)c3c2)c1-c1c(Cl)ccc(OC2CC2)c1C#N (atropisomer, axis not shown; (P)) [Example 16-131, (P)-2-(4-(4-(aminomethyl)-1-oxo-1,2-dihydrophthalazin-6-yl)-1-methyl-1H-pyrazol-5-yl)-3-chloro-6-cyclopropoxybenzonitrile]	347
Cn1ncc(-c2ccc3c(=O)[nH]nc(CN)c3c2)c1-c1c(F)cc(S(F)(F)(F)(F)F)cc1C#N (atropisomer, axis not shown; (P)) [Example 16-133, (P)-2-(4-(4-(aminomethyl)-1-oxo-1,2-dihydrophthalazin-6-yl)-1-methyl-1H-pyrazol-5-yl)-3-fluoro-5-(pentafluoro-16-sulfanyl)benzonitrile]	1080
Cn1ncc(-c2ccc3c(=O)[nH]nc(CN)c3c2)c1-c1c(F)cnc(OC2CC2)c1C#N (atropisomer, axis not shown; (P)) [Example 16-135, (P)-4-(4-(4-(aminomethyl)-1-oxo-1,2-dihydrophthalazin-6-yl)-1-methyl-1H-pyrazol-5-yl)-2-cyclopropoxy-5-fluoronicotinonitrile]	758
Cn1ncc(-c2ccc3c(=O)[nH]nc(CN)c3c2)c1-c1c(C2COC2)ccc2c1COC2 (atropisomer, axis not shown; (P)) [Example 16-137, (P)-4-(aminomethyl)-6-(1-methyl-5-(5-(oxetan-3-yl)-1,3-dihydroisobenzofuran-4-yl)-1H-pyrazol-4-yl)phthalazin-1(2H)-one]	> 10000
Cc1cc2ccccc2c(C#N)c1-c1c(-c2ccc3c(=O)[nH]nc(CN)c3c2)cnn1C (single isomer, unassigned) [Example 12-15A]	2380
Cc1cc2ccccc2c(C#N)c1-c1c(-c2ccc3c(=O)[nH]nc(CN)c3c2)cnn1C (single isomer, unassigned) [Example 12-15B]	356
Cc1c(F)c(-c2c(-c3cc(C)c4c(=O)[nH]nc(CN)c4c3)cnn2C)c(C#N)c2cc(Cl)cnc12 (single isomer, unassigned) [Example 16-107, (P)-6-(4-(4-(aminomethyl)-8-methyl-1-oxo-1,2-dihydrophthalazin-6-yl)-1-methyl-1H-pyrazol-5-yl)-3-chloro-7-fluoro-8-methylquinoline-5-carbonitrile]	634
Cc1c(F)c(-c2c(-c3cc(C)c4c(=O)[nH]nc(CN)c4c3)cnn2C)c(C#N)c2cc(Cl)cnc12 (single isomer, unassigned) [Example 16-108, (M)-6-(4-(4-(aminomethyl)-8-methyl-1-oxo-1,2-dihydrophthalazin-6-yl)-1-methyl-1H-pyrazol-5-yl)-3-chloro-7-fluoro-8-methylquinoline-5-carbonitrile]	5
Cc1c(F)c(-c2c(-c3cc(Cl)c4c(=O)[nH]nc(CN)c4c3)cnn2C)c(C#N)c2cc(Cl)cnc12 (single isomer, unassigned) [Example 16-109, (P)-6-(4-(4-(aminomethyl)-8-chloro-1-oxo-1,2-dihydrophthalazin-6-yl)-1-methyl-1H-pyrazol-5-yl)-3-chloro-7-fluoro-8-methylquinoline-5-carbonitrile]	1370
CCOc1cc(-c2cnn(C)c2-c2c(F)c(C)c3ncc(Cl)cc3c2C#N)cc2c(CN)n[nH]c(=O)c12 (single isomer, unassigned) [Example 16-112, (M)-6-(4-(4-(aminomethyl)-8-ethoxy-1-oxo-1,2-dihydrophthalazin-6-yl)-1-methyl-1H-pyrazol-5-yl)-3-chloro-7-fluoro-8-methylquinoline-5-carbonitrile]	51
Cc1c(Cl)cc(OC2CC2)c(C#N)c1-c1c(-c2ccc3c(=O)[nH]nc(CN)c3c2)cnn1C (single isomer, unassigned) [Example 16-121, (M)-2-(4-(4-(aminomethyl)-1-oxo-1,2-dihydrophthalazin-6-yl)-1-methyl-1H-pyrazol-5-yl)-4-chloro-6-cyclopropoxy-3-methylbenzonitrile]	> 10000
Cc1c(Cl)cc(OC2CC2)c(C#N)c1-c1c(-c2ccc3c(=O)[nH]nc(CN)c3c2)cnn1C (single isomer, unassigned) [Example 16-122, (P)-2-(4-(4-(aminomethyl)-1-oxo-1,2-dihydrophthalazin-6-yl)-1-methyl-1H-pyrazol-5-yl)-4-chloro-6-cyclopropoxy-3-methylbenzonitrile]	112
Cn1ncc(-c2ccc3c(=O)[nH]nc(CN)c3c2)c1-c1c(Cl)c(Cl)cc(OC2CC2)c1C#N (single isomer, unassigned) [Example 16-123, (P)-2-(4-(4-(aminomethyl)-1-oxo-1,2-dihydrophthalazin-6-yl)-1-methyl-1H-pyrazol-5-yl)-3,4-dichloro-6-cyclopropoxybenzonitrile]	4000
Cn1ncc(-c2ccc3c(=O)[nH]nc(CN)c3c2)c1-c1c(Cl)c(Cl)cc(OC2CC2)c1C#N (single isomer, unassigned) [Example 16-124, (M)-2-(4-(4-(aminomethyl)-1-oxo-1,2-dihydrophthalazin-6-yl)-1-methyl-1H-pyrazol-5-yl)-3,4-dichloro-6-cyclopropoxybenzonitrile]	70
Cn1ncc(-c2ccc3c(=O)[nH]nc(CN)c3c2)c1-c1c(F)c(Cl)cc(CC2CC2)c1C#N (single isomer, unassigned) [Example 16-125, (P)-2-(4-(4-(aminomethyl)-1-oxo-1,2-dihydrophthalazin-6-yl)-1-methyl-1H-pyrazol-5-yl)-4-chloro-6-(cyclopropylmethyl)-3-fluorobenzonitrile]	2950
Cn1ncc(-c2ccc3c(=O)[nH]nc(CN)c3c2)c1-c1c(F)c(Cl)cc(CC2CC2)c1C#N (single isomer, unassigned) [Example 16-126, (M)-2-(4-(4-(aminomethyl)-1-oxo-1,2-dihydrophthalazin-6-yl)-1-methyl-1H-pyrazol-5-yl)-4-chloro-6-(cyclopropylmethyl)-3-fluorobenzonitrile]	29
Cn1ncc(-c2ccc3c(=O)[nH]nc(CN)c3c2)c1-c1c(Cl)cc2ccccc2c1C#N (single isomer, unassigned) [Example 16-127, (P)-2-(4-(4-(aminomethyl)-1-oxo-1,2-dihydrophthalazin-6-yl)-1-methyl-1H-pyrazol-5-yl)-3-chloro-1-naphthonitrile]	347
Cn1ncc(-c2ccc3c(=O)[nH]nc(CN)c3c2)c1-c1c(Cl)cc2ccccc2c1C#N (single isomer, unassigned) [Example 16-128, (M)-2-(4-(4-(aminomethyl)-1-oxo-1,2-dihydrophthalazin-6-yl)-1-methyl-1H-pyrazol-5-yl)-3-chloro-1-naphthonitrile]	65
Cn1ncc(-c2ccc3c(=O)[nH]nc(CN)c3c2)c1-c1c(C(F)F)cc2ccccc2c1C#N (single isomer, unassigned) [Example 16-129, (P)-2-(4-(4-(aminomethyl)-1-oxo-1,2-dihydrophthalazin-6-yl)-1-methyl-1H-pyrazol-5-yl)-3-(difluoromethyl)-1-naphthonitrile]	5250

Same assay, conditions: read-out: IC50 + 2 μM MTA, in the presence of 2 μM MTA

Structure (SMILES)	IC50 [nM]
Cn1ncc(-c2ccc3c(=O)[nH]nc(CN)c3c2)c1-c1c(C2COC2)ccc2c1COC2 (atropisomer, axis not shown; (M)) [Example 16-138, (M)-4-(aminomethyl)-6-(1-methyl-5-(5-(oxetan-3-yl)-1,3-dihydroisobenzofuran-4-yl)-1H-pyrazol-4-yl)phthalazin-1(2H)-one]	> 10000
